From PubChem BioAssay (NCI)
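The concentration for 50% growth inhibition is given as GI50. TGI: total growth inhibition.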

Experiments:
Assay in all cases: inhibition of tumour cell growth, NCI panel, 384-well format
NCI-H226 lung = system: NCI-H226 lung
HOP-92 NSCLC = system: HOP-92 NSCLC
BT-549 breast = system: BT-549 breast
SF-295 CNS = system: SF-295 CNS
A498 renal = system: A498 renal
SK-MEL-2 melanoma = system: SK-MEL-2 melanoma
EKVX NSCLC = system: EKVX NSCLC
OVCAR-5 ovarian = system: OVCAR-5 ovarian
SNB-19 CNS = system: SNB-19 CNS
M14 melanoma = system: M14 melanoma
UO-31 renal = system: UO-31 renal
UACC-257 melanoma = system: UACC-257 melanoma
RPMI-8226 leukemia = system: RPMI-8226 leukemia
HCT-15 colon = system: HCT-15 colon
NCI-H322M lung = system: NCI-H322M lung
CCRF-CEM leukemia = system: CCRF-CEM leukemia
OVCAR-8 ovarian = system: OVCAR-8 ovarian
CAKI-1 renal = system: CAKI-1 renal
MCF7 breast = system: MCF7 breast
DU-145 prostate = system: DU-145 prostate
COLO 205 colon = system: COLO 205 colon
HL-60(TB) leukemia = system: HL-60(TB) leukemia
RXF 393 renal = system: RXF 393 renal
HCC-2998 colon = system: HCC-2998 colon
NCI-H23 lung = system: NCI-H23 lung
SN12C renal = system: SN12C renal
NCI-H522 lung = system: NCI-H522 lung
K-562 leukemia = system: K-562 leukemia
NCI-H460 NSCLC = system: NCI-H460 NSCLC
SF-268 CNS = system: SF-268 CNS
MDA-MB-231 breast = system: MDA-MB-231 breast
OVCAR-4 ovarian = system: OVCAR-4 ovarian
SK-OV-3 ovarian = system: SK-OV-3 ovarian
HCT-116 colon = system: HCT-116 colon
ACHN renal = system: ACHN renal
IGROV1 ovarian = system: IGROV1 ovarian
SK-MEL-28 melanoma = system: SK-MEL-28 melanoma
PC-3 prostate = system: PC-3 prostate
UACC-62 melanoma = system: UACC-62 melanoma
OVCAR-3 ovarian = system: OVCAR-3 ovarian
KM12 colon = system: KM12 colon
HT29 colon = system: HT29 colon
SK-MEL-5 melanoma = system: SK-MEL-5 melanoma
T-47D breast = system: T-47D breast
A549 NSCLC = system: A549 NSCLC
SNB-75 CNS = system: SNB-75 CNS
MDA-MB-468 breast = system: MDA-MB-468 breast

CN1CCN(c2ccc(-c3cccc(CN4CCOCC4)c3)cc2NC(=O)c2c[nH]c(=O)cc2C(F)(F)F)CC1
GI50 (NCI-H226 lung): 52.5 µM
TGI (NCI-H226 lung): > 100 µM
GI50 (HOP-92 NSCLC): 24.9 µM
TGI (HOP-92 NSCLC): > 77.4 µM
GI50 (BT-549 breast): 26.5 µM
TGI (BT-549 breast): > 68.5 µM
GI50 (SF-295 CNS): 17.8 µM
TGI (SF-295 CNS): 56.8 µM
GI50 (A498 renal): 17.3 µM
TGI (A498 renal): 40.7 µM
GI50 (SK-MEL-2 melanoma): 20.9 µM
TGI (SK-MEL-2 melanoma): 43.3 µM
GI50 (EKVX NSCLC): 33.5 µM
TGI (EKVX NSCLC): > 100 µM
GI50 (OVCAR-5 ovarian): 40.9 µM
TGI (OVCAR-5 ovarian): > 100 µM
GI50 (SNB-19 CNS): 46.3 µM
TGI (SNB-19 CNS): > 100 µM
GI50 (M14 melanoma): 16 µM
TGI (M14 melanoma): 29.8 µM
GI50 (UO-31 renal): 14.5 µM
TGI (UO-31 renal): > 100 µM
GI50 (UACC-257 melanoma): 15.3 µM
TGI (UACC-257 melanoma): 28.7 µM
GI50 (RPMI-8226 leukemia): 17.9 µM
TGI (RPMI-8226 leukemia): 43.4 µM
GI50 (HCT-15 colon): 12.3 µM
TGI (HCT-15 colon): 44.8 µM
GI50 (NCI-H322M lung): 53.3 µM
TGI (NCI-H322M lung): > 100 µM
GI50 (CCRF-CEM leukemia): 6.98 µM
TGI (CCRF-CEM leukemia): 13.8 µM
GI50 (OVCAR-8 ovarian): 18.3 µM
TGI (OVCAR-8 ovarian): > 100 µM
GI50 (CAKI-1 renal): 25 µM
TGI (CAKI-1 renal): > 100 µM
GI50 (MCF7 breast): 16.8 µM
TGI (MCF7 breast): > 62.7 µM
GI50 (DU-145 prostate): 19.5 µM
TGI (DU-145 prostate): > 100 µM
GI50 (COLO 205 colon): 8.59 µM
TGI (COLO 205 colon): > 89 µM
GI50 (HL-60(TB) leukemia): 8.87 µM
TGI (HL-60(TB) leukemia): 20.1 µM
GI50 (RXF 393 renal): 11.4 µM
TGI (RXF 393 renal): 33.3 µM
GI50 (HCC-2998 colon): 29.9 µM
TGI (HCC-2998 colon): > 63.9 µM
GI50 (NCI-H23 lung): 17.3 µM
TGI (NCI-H23 lung): > 86.1 µM
GI50 (SN12C renal): > 62.1 µM
TGI (SN12C renal): > 100 µM
GI50 (NCI-H522 lung): 22.8 µM
TGI (NCI-H522 lung): 69.6 µM
GI50 (K-562 leukemia): 12.3 µM
TGI (K-562 leukemia): 25.3 µM
GI50 (NCI-H460 NSCLC): 8.79 µM
TGI (NCI-H460 NSCLC): 23.5 µM
GI50 (SF-268 CNS): 14.7 µM
TGI (SF-268 CNS): > 29.6 µM
GI50 (MDA-MB-231 breast): 25.6 µM
TGI (MDA-MB-231 breast): > 94 µM
GI50 (OVCAR-4 ovarian): 50.4 µM
TGI (OVCAR-4 ovarian): > 100 µM
GI50 (SK-OV-3 ovarian): > 61.1 µM
TGI (SK-OV-3 ovarian): > 100 µM
GI50 (HCT-116 colon): 12.7 µM
TGI (HCT-116 colon): > 78.2 µM
GI50 (ACHN renal): 37.9 µM
TGI (ACHN renal): > 100 µM
GI50 (IGROV1 ovarian): 31.3 µM
TGI (IGROV1 ovarian): 98.2 µM
GI50 (SK-MEL-28 melanoma): 17 µM
TGI (SK-MEL-28 melanoma): 31 µM
GI50 (PC-3 prostate): 27 µM
TGI (PC-3 prostate): > 94.6 µM
GI50 (UACC-62 melanoma): 19 µM
TGI (UACC-62 melanoma): 62.8 µM
GI50 (OVCAR-3 ovarian): 18.9 µM
TGI (OVCAR-3 ovarian): > 74.4 µM
GI50 (KM12 colon): 15.9 µM
TGI (KM12 colon): > 87.6 µM
GI50 (HT29 colon): 14.2 µM
TGI (HT29 colon): 32 µM
GI50 (SK-MEL-5 melanoma): 13.6 µM
TGI (SK-MEL-5 melanoma): 26.6 µM
GI50 (T-47D breast): 23.1 µM
TGI (T-47D breast): > 88.9 µM
GI50 (A549 NSCLC): 14.4 µM
TGI (A549 NSCLC): > 100 µM
GI50 (SNB-75 CNS): 22.2 µM
TGI (SNB-75 CNS): > 68.3 µM
GI50 (MDA-MB-468 breast): 12 µM
TGI (MDA-MB-468 breast): 28.9 µM

c1ccc2c(NCCCN3CCN(CCCNc4c5ccccc5nc5ccccc45)CC3)c3ccccc3nc2c1
GI50 (NCI-H226 lung): 0.161 µM
TGI (NCI-H226 lung): 1.19 µM
GI50 (HOP-92 NSCLC): 0.425 µM
TGI (HOP-92 NSCLC): 2.45 µM
GI50 (BT-549 breast): 1.2 µM
TGI (BT-549 breast): 2.57 µM
GI50 (SF-295 CNS): 1.03 µM
TGI (SF-295 CNS): 3.49 µM
GI50 (A498 renal): 0.504 µM
TGI (A498 renal): 2.05 µM
GI50 (SK-MEL-2 melanoma): 0.261 µM
TGI (SK-MEL-2 melanoma): 0.434 µM
GI50 (EKVX NSCLC): 1.33 µM
TGI (EKVX NSCLC): 3.95 µM
GI50 (OVCAR-5 ovarian): 0.378 µM
TGI (OVCAR-5 ovarian): 2.46 µM
GI50 (SNB-19 CNS): 0.433 µM
TGI (SNB-19 CNS): 6.93 µM
GI50 (M14 melanoma): 1.32 µM
TGI (M14 melanoma): 2.63 µM
GI50 (UO-31 renal): 1.78 µM
TGI (UO-31 renal): 4.05 µM
GI50 (UACC-257 melanoma): 1.39 µM
TGI (UACC-257 melanoma): 2.7 µM
GI50 (RPMI-8226 leukemia): 0.134 µM
TGI (RPMI-8226 leukemia): 0.291 µM
GI50 (HCT-15 colon): 2.58 µM
TGI (HCT-15 colon): 8.97 µM
GI50 (NCI-H322M lung): 0.277 µM
TGI (NCI-H322M lung): 1.38 µM
GI50 (CCRF-CEM leukemia): 0.118 µM
TGI (CCRF-CEM leukemia): 0.551 µM
GI50 (OVCAR-8 ovarian): 0.296 µM
TGI (OVCAR-8 ovarian): 1.56 µM
GI50 (CAKI-1 renal): 0.929 µM
TGI (CAKI-1 renal): 4.69 µM
GI50 (MCF7 breast): 0.208 µM
TGI (MCF7 breast): 0.909 µM
GI50 (DU-145 prostate): 0.683 µM
TGI (DU-145 prostate): 3.49 µM
GI50 (COLO 205 colon): 1.28 µM
TGI (COLO 205 colon): 3.06 µM
GI50 (HL-60(TB) leukemia): 0.108 µM
TGI (HL-60(TB) leukemia): 0.243 µM
GI50 (RXF 393 renal): 0.421 µM
TGI (RXF 393 renal): 1.46 µM
GI50 (HCC-2998 colon): 0.391 µM
TGI (HCC-2998 colon): 1.51 µM
GI50 (NCI-H23 lung): 0.327 µM
TGI (NCI-H23 lung): 1.34 µM
GI50 (SN12C renal): 0.0816 µM
TGI (SN12C renal): 0.348 µM
GI50 (NCI-H522 lung): 0.0647 µM
TGI (NCI-H522 lung): 0.26 µM
GI50 (K-562 leukemia): 1.11 µM
TGI (K-562 leukemia): 3.6 µM
GI50 (NCI-H460 NSCLC): 0.17 µM
TGI (NCI-H460 NSCLC): 0.384 µM
GI50 (SF-268 CNS): 0.301 µM
TGI (SF-268 CNS): 1.19 µM
GI50 (MDA-MB-231 breast): 0.506 µM
TGI (MDA-MB-231 breast): 2.06 µM
GI50 (OVCAR-4 ovarian): 0.446 µM
TGI (OVCAR-4 ovarian): 1.22 µM
GI50 (SK-OV-3 ovarian): 0.458 µM
TGI (SK-OV-3 ovarian): 2.45 µM
GI50 (HCT-116 colon): 0.267 µM
TGI (HCT-116 colon): 1.28 µM
GI50 (ACHN renal): 0.345 µM
TGI (ACHN renal): 2.24 µM
GI50 (IGROV1 ovarian): 0.228 µM
TGI (IGROV1 ovarian): 1.43 µM
GI50 (SK-MEL-28 melanoma): 1.82 µM
TGI (SK-MEL-28 melanoma): 3.24 µM
GI50 (PC-3 prostate): 1.39 µM
TGI (PC-3 prostate): 3.75 µM
GI50 (UACC-62 melanoma): 0.336 µM
TGI (UACC-62 melanoma): 1.15 µM
GI50 (OVCAR-3 ovarian): 0.651 µM
TGI (OVCAR-3 ovarian): 2.12 µM
GI50 (KM12 colon): 0.539 µM
TGI (KM12 colon): 2.26 µM
GI50 (HT29 colon): 0.339 µM
TGI (HT29 colon): 1.53 µM
GI50 (SK-MEL-5 melanoma): 1.01 µM
TGI (SK-MEL-5 melanoma): 2.24 µM
GI50 (T-47D breast): 1.1 µM
TGI (T-47D breast): 3.61 µM
GI50 (A549 NSCLC): 0.445 µM
TGI (A549 NSCLC): 1.93 µM
GI50 (SNB-75 CNS): 0.361 µM
TGI (SNB-75 CNS): 1.41 µM
GI50 (MDA-MB-468 breast): 0.305 µM
TGI (MDA-MB-468 breast): 0.67 µM
